Key:
[1] = molecular target: T1, Parp7 (Homo sapiens, UniProt Q7Z3E1); assay: in vitro ADP-ribosylation of AR and automodification with recombinant Parp7 and NAD+; assay type: biochemical
T1 construct: gene TIPARP; N-terminal His6-T7-tagged Parp7 expressed in Sf21 insect cells
T1 sequence (Q7Z3E1 1-657): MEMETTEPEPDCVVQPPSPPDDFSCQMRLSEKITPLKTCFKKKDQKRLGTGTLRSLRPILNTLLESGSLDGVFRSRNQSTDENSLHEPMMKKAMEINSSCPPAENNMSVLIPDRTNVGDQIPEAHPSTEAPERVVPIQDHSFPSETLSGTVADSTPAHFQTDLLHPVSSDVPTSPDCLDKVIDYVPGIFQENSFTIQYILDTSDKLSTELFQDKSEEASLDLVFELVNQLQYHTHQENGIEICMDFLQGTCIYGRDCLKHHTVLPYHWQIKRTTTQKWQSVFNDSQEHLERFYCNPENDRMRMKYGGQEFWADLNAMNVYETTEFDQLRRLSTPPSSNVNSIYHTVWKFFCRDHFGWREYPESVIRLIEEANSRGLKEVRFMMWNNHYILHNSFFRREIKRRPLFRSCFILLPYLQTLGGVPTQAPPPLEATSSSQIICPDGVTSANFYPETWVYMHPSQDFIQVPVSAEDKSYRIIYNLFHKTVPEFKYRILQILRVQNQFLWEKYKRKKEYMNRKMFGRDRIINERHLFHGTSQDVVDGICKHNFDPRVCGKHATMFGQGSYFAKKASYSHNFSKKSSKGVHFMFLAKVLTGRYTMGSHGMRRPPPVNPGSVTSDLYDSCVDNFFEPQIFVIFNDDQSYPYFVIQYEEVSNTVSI

[2] = molecular target: Flag-AR 4CG (C125, 290, 327, 406G) (human) (UniProt P10275); assay: co-IP; AR IP from PC3M/HA-Parp7 cells stably expressing Flag-tagged WT AR or Cys-to-Gly mutants, treated +R1881; probed for AR, ADP-ribosylation, Dtx3L and Parp9
Chain of Flag-AR 4CG (C125, 290, 327, 406G) (human) (P10275 whole entry C125G/C290G/C327G/C406G): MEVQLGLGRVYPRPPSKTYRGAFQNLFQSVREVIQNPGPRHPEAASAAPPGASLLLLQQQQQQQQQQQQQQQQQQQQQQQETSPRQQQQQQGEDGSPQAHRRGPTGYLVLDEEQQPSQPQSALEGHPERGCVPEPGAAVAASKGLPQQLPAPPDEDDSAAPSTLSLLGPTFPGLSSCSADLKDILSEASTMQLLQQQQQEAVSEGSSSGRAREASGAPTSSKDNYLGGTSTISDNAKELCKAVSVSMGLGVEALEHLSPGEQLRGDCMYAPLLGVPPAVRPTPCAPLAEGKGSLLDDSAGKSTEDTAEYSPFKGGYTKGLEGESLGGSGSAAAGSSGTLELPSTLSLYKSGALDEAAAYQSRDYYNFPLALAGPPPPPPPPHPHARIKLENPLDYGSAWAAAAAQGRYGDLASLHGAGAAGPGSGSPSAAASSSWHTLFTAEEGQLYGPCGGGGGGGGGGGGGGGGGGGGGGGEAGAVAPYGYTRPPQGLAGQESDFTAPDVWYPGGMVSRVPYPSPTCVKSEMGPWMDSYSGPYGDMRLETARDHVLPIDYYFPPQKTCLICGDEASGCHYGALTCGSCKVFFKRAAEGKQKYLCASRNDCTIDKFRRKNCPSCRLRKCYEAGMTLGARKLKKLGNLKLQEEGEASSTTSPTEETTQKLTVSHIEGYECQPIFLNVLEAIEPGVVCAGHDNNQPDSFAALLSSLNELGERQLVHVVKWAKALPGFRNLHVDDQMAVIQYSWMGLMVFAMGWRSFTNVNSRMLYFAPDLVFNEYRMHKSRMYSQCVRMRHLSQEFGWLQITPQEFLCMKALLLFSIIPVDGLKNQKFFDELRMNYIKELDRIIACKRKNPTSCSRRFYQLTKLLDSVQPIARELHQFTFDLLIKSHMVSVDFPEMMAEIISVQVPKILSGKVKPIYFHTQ

| Molecule | in vitro ADP-ribosylation of AR and automodification with recombinant Parp7 and [1] | complex formation, percent of WT [2] |
| --- | --- | --- |
| NC(=O)c1ccc[n+]([C@@H]2O[C@H](COP(=O)([O-])OP(=O)(O)OC[C@H]3O[C@@H](n4cnc5c(N)ncnc54)[C@H](O)[C@@H]3O)[C@@H](O)[C@H]2O)c1 [NAD^+] | Combining recombinant Parp7, NAD^+, and bead-immobilized AR reconstituted ADP-ribosylation | – |
| Parp9 (enzyme) | – | 50 % of WT |
